# US20240423954A1, “Chlorthalidone Compositions And Methods” (Nivagen Pharmaceuticals, Inc., priority 2020, published 2024)
# Assay: Initial experiments on chlorthalidone API in solution
# Type: physicochemical
# Details: without excipients; would agglomerate and cake
# Text: Accordingly, for stabilizing the chlorthalidone in a stabilized suspension, the inventors contemplated combining the chlorthalidone with select excipients. These excipients include at least a solubilizing and/or a wetting agent, at least one suspending agent, at least one viscosity increasing agent or at least one anti-caking agent, and water. The suspension may also further include an anti-foaming agent, at least one antimicrobial, and at least one sweetening agent.
smiles,measurement,value
"NS(=O)(=O)c1cc(C2(O)NC(=O)c3ccccc32)ccc1Cl (stereo not shown) [chlorthalidone, Chlorthalidone]",stability of the API in solution,not stable in solution
